Laboratory results as given in patent US20200113923A1, “DOT1L INHIBITORS FOR USE IN THE TREATMENT OF LEUKEMIA” (Epizyme, Inc., priority 2012, published 2020).

Tests used:
Assay type in all cases: cell-based, Human
HOXA9 = experiment: Quantitative real-time PCR, HOXA9 expression after DOT1L inhibitor treatment; conditions: up to 10 μM for 6 days, qPCR
Description: (§1) Exponentially growing EOL-1 cells were plated in a 12 well plate at 2×10^5 cells/mL. […] On day 4, cells were maintained in log phase culture by reseeding at 5×10^5 cells/mL and compound was replenished. At day 6 cells were washed twice with PBS and pelleted by centrifugation at 200×g. Cell pellets were lysed in 300 μL RLT buffer (Qiagen) and total RNA was isolated using the RNeasy total RNA isolation kit (Qiagen 74106). Total RNA (1 μg) was reverse transcribed using a high capacity cDNA reverse transcription kit (Applied Biosystems 4368813). RNA isolation and cDNA synthesis were carried out according to the manufacturer's protocol. Predesigned labeled primer and probe sets for HOXA9 (Hs00365956), MEIS1 (Hs00180020) and FLT3 (Hs00975659) were purchased from Applied Biosystems. Quantitative real-time PCR (qPCR) reactions contained 50 ng cDNA, 1× labeled primer and probe set, and 1× Taqman universal PCR master mix (Applied Biosystems 4304437). Samples were run on a 7900 HT Fast Real Time PCR machine (Applied Biosystems 4351405) with cycling conditions of 2 min 50° C., 10 min 95° C., 40 cycles at 15 sec 95° C. and 1 min 60° C. […] Percent of DMSO control was calculated with the equation (2^−ΔΔCT)*100 where the ΔΔCT is the difference between normalized target gene and DMSO control (ΔCT sample−ΔCT control=ΔΔCT). […]

FLT3 = experiment: Quantitative real-time PCR, FLT3 expression after DOT1L inhibitor treatment; conditions: up to 10 μM for 6 days, qPCR
Description: as §1

H3K79me2 = H3K79me2 immunoblot in EOL-1 cells
Description: Nuclei were collected by centrifugation at […] for 5 minutes at 4° C. and washed once in Tris/EDTA buffer (pH 7.4). Supernatant was removed and histones extracted for one hour with 60 μl 0.4 N cold sulfuric acid. Extracts were clarified by centrifugation at 10,000 g for 10 minutes at 4° C. and transferred to a fresh microcentrifuge tube containing 600 μl ice cold acetone. Histones were precipitated at −20° C. for 2 hours, pelleted by centrifugation at 10,000 g for 10 minutes and resuspended in 60 μl distilled water (DI water). Total protein of the acid extracts was assessed using a bicinchoninic acid (BCA) protein quantification assay with a bovine serum albumin (BSA) standard (Pierce Biotechnology).
For immunoblot analysis of the H3K79me2 inhibition by DOT1L inhibitor, exponentially growing EOL-1 cells were seeded at 2×10^5 cells/mL and incubated in the presence of increasing concentrations of DOT1L inhibitor for 4 days. […] Signal intensities specific for each methyl-specific antibody was quantified using Odyssey software and normalized to that of the appropriate total histone control signal on the same filter by dividing the methyl-specific antibody signal intensity by the total histone control signal intensity.
Inhibition of methylation of H3K79 was assessed after 4 days of treatment of DOT1L compounds in exponentially growing EOL-1 cells. […]

EOL-1 cells = experiment: EOL-1 cell growth and viability assay (Guava Viacount, 11 days)
Description: Human leukemia cell line EOL-1 (Catalog # ACC-386) was purchased from DSMZ and were grown in Roswell Park Memorial Institute medium (RPMI) with 10% Fetal Bovine Serum (FBS). Cells were kept in log growth as outlined in the technical data sheet provided by the vendor.
Exponentially growing EOL-1 cells were plated in 96-well plates at a density of 3×10^4 viable cells/well. Each treatment was seeded in triplicate with a final well volume of 150 μLs. Cells were incubated with increasing concentrations of DOT1L inhibitor up to 50 μM. Viable cell number was determined every 3-4 days for 11 days using the Guava Viacount assay (Millipore #4000-0040) and analyzed on a Guava EasyCyte Plus instrument according to the manufacturer's protocol. On the days of cell counts, growth media and inhibitor were replenished and cells maintained in log phase culture by reseeding at a density of 5×10^4 viable cells/well. Total cell number was expressed as split-adjusted viable cells per well. For each cell inhibitor IC50 values were determined from concentration-dependence curves at day 11. […]
The effect of DOT1L inhibitors on leukemia cell growth and viability was investigated. […] The number of viable cells was determined every 3-4 days for 11 days. […] Total cell number was expressed as split-adjusted viable cells per well. […]

MEIS1 = experiment: Quantitative real-time PCR, MEIS1 expression after DOT1L inhibitor treatment; conditions: up to 10 μM for 6 days, qPCR
Description: (§2) Exponentially growing EOL-1 cells were plated in a 12 well plate at 2×10^5 cells/mL. […] On day 4, cells were maintained in log phase culture by reseeding at 5×10^5 cells/mL and compound was replenished. At day 6 cells were washed twice with PBS and pelleted by centrifugation at 200×g. Cell pellets were lysed in 300 μL RLT buffer (Qiagen) and total RNA was isolated using the RNeasy total RNA isolation kit (Qiagen 74106). Total RNA (1 μg) was reverse transcribed using a high capacity cDNA reverse transcription kit (Applied Biosystems 4368813). RNA isolation and cDNA synthesis were carried out according to the manufacturer's protocol. Predesigned labeled primer and probe sets for HOXA9 (Hs00365956), MEIS1 (Hs00180020) and FLT3 (Hs00975659) were purchased from Applied Biosystems. Quantitative real-time PCR (qPCR) reactions contained 50 ng cDNA, 1× labeled primer and probe set, and 1× Taqman universal PCR master mix (Applied Biosystems 4304437). Samples were run on a 7900 HT Fast Real Time PCR machine (Applied Biosystems 4351405) with cycling conditions of 2 min 50° C., 10 min 95° C., 40 cycles at 15 sec 95° C. and 1 min 60° C. […] Percent of DMSO control was calculated with the equation (2^−ΔΔCT)*100 where the ΔΔCT is the difference between normalized target gene and DMSO control (ΔCT sample−ΔCT control=ΔΔCT).

DOT1L = experiment: Quantitative real-time PCR, DOT1L expression after DOT1L inhibitor treatment; conditions: up to 10 μM for 6 days, qPCR
Description: as §2

IC50 (H3K79me2; Homo sapiens, EOL1, 96 h, 4 days of treatment, read-out: IC50, inhibition of methylation of H3K79 (H3K79me2)) [nM]	SMILES	HOXA9 expression (HOXA9)	FLT3 expression (FLT3)	inhibition of methyltransferase activity of DOT1L (H3K79me2 western blot) (H3K79me2; 4 days, 0.009 to 10 μM)	cell growth of EOL-1 cells (EOL-1 cells; 0.003 μM-50 μM, 11 days, MLL PTD cell line)	IC50 (EOL-1 cells; Homo sapiens, EOL1, 264 h, concentration-dependence curves at day 11) [nM]	MEIS1 expression (MEIS1)	DOT1L gene expression (DOT1L)
27	CC(C)N(C[C@H]1O[C@@H](n2cnc3c(N)ncnc32)[C@H](O)[C@@H]1O)[C@H]1C[C@@H](CCc2nc3cc(C(C)(C)C)ccc3[nH]2)C1 [Compound A2, (2R,3R,4S,5R)-2-(6-amino-9H-purin-9-yl)-5-((((1r,3S)-3-(2-(5-(tert-butyl)-1H-benzo[d]imidazol-2-yl)ethyl)cyclobu-tyl)(isopropyl)a-mino)methyl)tet-rahydrofuran-3,4-diol]	reduced in a dose-dependent manner	reduced in a dose-dependent manner	dose-dependent inhibition	significantly inhibited	2	–	–
–	CC(C)N(CCCNC(=O)Nc1ccc(C(C)(C)C)cc1)CC1O[C@@H](n2ccc3c(N)ncnc32)[C@H](O)[C@@H]1O (stereo partly shown) [Compound T]	reduced in a dosage-dependent manner	reduced in a dosage-dependent manner	–	–	–	reduced in a dosage-dependent manner	not reduced
